Measured values published in US12091426B2, “Bifunctional degraders of hematopoietic progenitor kinase and therapeutic uses thereof” (Nurix Therapeutics, Inc., priority 2021, dated 2024).

Molecular target: T1, HPK1 (Homo sapiens, UniProt Q92918)
T1 construct: A HiBiT tag was introduced by CRISPR on the N terminus of HPK1 in Jurkat cells; host or cells: Jurkat cells (ATCC TIB-152), monoclonal line with CRISPR knock-in of HiBiT at the endogenous HPK1 locus
Test: HPK1 Cellular HiBit Degradation Assay
Format: cell-based
Settings: HiBiT HPK1 Jurkat cells, 24 hrs; for DC50: concentration at which 50% of HPK1 was remaining, read-out: DC50 Category; for Dmax: Jurkat, maximum degradation vs DMSO vehicle control, read-out: Dmax Category
Summary of the method: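 HiBiT-HPK1 Jurkat (CRISPR, N-term tag), 3×10^4 cells/well, RPMI 1640 + 10% FBS; CTMs 10 uM–0.1 nM, 11 pts; 24 hrs, 37° C/5% CO2; lytic HiBiT luminescence; % remaining vs DMSO, parental background subtracted; 4-parameter fit → DC50, Dmax.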

T1 sequence (Q92918 whole entry): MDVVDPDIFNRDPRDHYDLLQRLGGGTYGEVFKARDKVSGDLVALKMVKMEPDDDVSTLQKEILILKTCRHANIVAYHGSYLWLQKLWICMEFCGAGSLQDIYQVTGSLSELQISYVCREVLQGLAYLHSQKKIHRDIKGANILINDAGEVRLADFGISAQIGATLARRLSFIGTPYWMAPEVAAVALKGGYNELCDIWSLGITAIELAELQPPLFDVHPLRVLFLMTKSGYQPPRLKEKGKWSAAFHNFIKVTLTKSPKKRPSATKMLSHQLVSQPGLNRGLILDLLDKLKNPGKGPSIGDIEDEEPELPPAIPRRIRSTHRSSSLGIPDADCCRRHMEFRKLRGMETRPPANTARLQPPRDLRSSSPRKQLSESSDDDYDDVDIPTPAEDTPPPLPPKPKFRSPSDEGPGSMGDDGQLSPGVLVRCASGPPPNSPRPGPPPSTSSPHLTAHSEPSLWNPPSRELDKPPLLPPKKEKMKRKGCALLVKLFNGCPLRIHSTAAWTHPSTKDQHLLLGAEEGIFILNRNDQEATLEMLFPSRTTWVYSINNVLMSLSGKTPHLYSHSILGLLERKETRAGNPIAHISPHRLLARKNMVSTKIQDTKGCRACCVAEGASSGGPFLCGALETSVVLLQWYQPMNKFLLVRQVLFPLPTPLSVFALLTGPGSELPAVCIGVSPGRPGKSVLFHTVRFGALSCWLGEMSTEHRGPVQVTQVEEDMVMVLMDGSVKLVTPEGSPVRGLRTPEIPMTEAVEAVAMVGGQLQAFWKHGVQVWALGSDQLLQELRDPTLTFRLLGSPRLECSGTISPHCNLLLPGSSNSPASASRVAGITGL

SMILES	DC50	Dmax
CC(C)n1cnc2cc(-c3ccc4c(c3)N([C@H]3C[C@@H](N5CCCCC5)C3)C(=O)C43CCN(C(=O)[C@@H]4CCN(C(=O)[C@H]5CC[C@H](Nc6ccc(C7CCC(=O)NC7=O)cc6)CC5)C4)CC3)nc(Nc3ccncc3F)c21 (stereo partly drawn) [Example 4, 3-(4-(((1R,4R)-4-((R)-3-(6-(4-((3-fluoropyridin-4-yl)amino)-3-isopropyl-3H-imidazo[4,5-c]pyridin-6-yl)-2-oxo-1-((1S,3S)-3-(piperidin-1-yl)cyclobutyl)spiro[indoline-3,4′-piperidine]-1′-carbonyl)pyrrolidine-1-carbonyl)cyclohexyl)amino)phenyl)piperidine-2,6-dione]	< 100 nM	> 85%
CC(C)n1cnc2cc(-c3ccc4c(c3)N([C@H]3C[C@@H](N5CCCCC5)C3)C(=O)C43CCN(C(=O)[C@@H]4CCN(C(=O)[C@H]5CC[C@H](Oc6ccc(C7CCC(=O)NC7=O)cc6)CC5)C4)CC3)nc(NC3CC3)c21 (stereo partly drawn) [Example 13, 3-(4-{[(1R,4R)-4-[(3R)-3-({6-[4-(cyclopropylamino)-3-(propan-2-yl)-3H-imidazo[4,5-c]pyridin-6-yl]-2-oxo-1-[(1S,3S)-3-(piperidin-1-yl)cyclobutyl]-1,2-dihydrospiro[indole-3,4′-piperidin]-1′-yl}carbonyl)pyrrolidine-1-carbonyl]cyclohexyl]oxy}phenyl)piperidine-2,6-dione]	< 100 nM	> 85%
CC(C)n1cnc2cc(-c3ccc4c(c3)N([C@H]3C[C@@H](N5CCCCC5)C3)C(=O)C43CCN(C(=O)[C@@H]4CCN(C(=O)[C@H]5CC[C@H](Oc6ccc(C7CCC(=O)NC7=O)cc6)CC5)C4)CC3)nc(Nc3ccccc3F)c21 (stereo partly drawn) [Example 14, 3-(4-{[(1R,4R)-4-[(3R)-3-[(6-{4-[(2-fluorophenyl)amino]-3-(propan-2-yl)-3H-imidazo[4,5-c]pyridin-6-yl}-2-oxo-1-[(1S,3S)-3-(piperidin-1-yl)cyclobutyl]-1,2-dihydrospiro[indole-3,4′-piperidin]-1′-yl)carbonyl]pyrrolidine-1-carbonyl]cyclohexyl]oxy}phenyl)piperidine-2,6-dione]	< 100 nM	> 85%
CC(C)n1cnc2cc(-c3ccc4c(c3)N([C@H]3C[C@@H](N5CCCCC5)C3)C(=O)C43CCN(C(=O)[C@@H]4CCN(C(=O)[C@H]5CC[C@H](Oc6ccc(C7CCC(=O)NC7=O)cc6)CC5)C4)CC3)nc(Nc3ccncc3F)c21 (stereo partly drawn) [Example 15, 3-(4-{[(1R,4R)-4-[(3R)-3-[(6-{4-[(3-fluoropyridin-4-yl)amino]-3-(propan-2-yl)-3H-imidazo[4,5-c]pyridin-6-yl}-2-oxo-1-[(1S,3S)-3-(piperidin-1-yl)cyclobutyl]-1,2-dihydrospiro[indole-3,4′-piperidin]-1′-yl)carbonyl]pyrrolidine-1-carbonyl]cyclohexyl]oxy}phenyl)piperidine-2,6-dione]	< 100 nM	> 85%
CC(C)n1cnc2cc(-c3ccc4c(c3)N([C@H]3C[C@@H](N5CCCCC5)C3)C(=O)C43CCN(C(=O)[C@@H]4CCN(C(=O)[C@H]5CC[C@H](Oc6ccc(N7CCC(=O)NC7=O)cn6)CC5)C4)CC3)nc(NC3CC3)c21 [Example 20, 1-(6-{[(1R,4R)-4-[(3R)-3-({6-[4-(cyclopropylamino)-3-(propan-2-yl)-3H-imidazo[4,5-c]pyridin-6-yl]-2-oxo-1-[(1S,3S)-3-(piperidin-1-yl)cyclobutyl]-1,2-dihydrospiro[indole-3,4′-piperidin]-1′-yl}carbonyl)pyrrolidine-1-carbonyl]cyclohexyl]oxy}pyridin-3-yl)-1,3-diazinane-2,4-dione]	< 100 nM	70 to 85%
CC(C)n1cnc2cc(-c3ccc4c(c3)N([C@H]3C[C@@H](N5CCCCC5)C3)C(=O)C43CCN(C(=O)[C@@H]4CCN(C(=O)[C@H]5CC[C@H](Oc6ccc(N7CCC(=O)NC7=O)cn6)CC5)C4)CC3)nc(Nc3ccccc3F)c21 [Example 21, 1-(6-{[(1R,4R)-4-[(3R)-3-[(6-{4-[(2-fluorophenyl)amino]-3-(propan-2-yl)-3H-imidazo[4,5-c]pyridin-6-yl}-2-oxo-1-[(1S,3S)-3-(piperidin-1-yl)cyclobutyl]-1,2-dihydrospiro[indole-3,4′-piperidin]-1′-yl)carbonyl]pyrrolidine-1-carbonyl]cyclohexyl]oxy}pyridin-3-yl)-1,3-diazinane-2,4-dione]	< 100 nM	> 85%
CC(C)n1cnc2cc(-c3ccc4c(c3)N([C@H]3C[C@@H](N5CCCCC5)C3)C(=O)C43CCN(C(=O)[C@@H]4CCN(C(=O)[C@H]5CC[C@H](Oc6ccc(N7CCC(=O)NC7=O)cn6)CC5)C4)CC3)nc(Nc3ccncc3F)c21 [Example 22, 1-(6-{[(1R,4R)-4-[(3R)-3-[(6-{4-[(3-fluoropyridin-4-yl)amino]-3-(propan-2-yl)-3H-imidazo[4,5-c]pyridin-6-yl}-2-oxo-1-[(1S,3S)-3-(piperidin-1-yl)cyclobutyl]-1,2-dihydrospiro[indole-3,4′-piperidin]-1′-yl)carbonyl]pyrrolidine-1-carbonyl]cyclohexyl]oxy}pyridin-3-yl)-1,3-diazinane-2,4-dione]	< 100 nM	70 to 85%
CC(C)n1cnc2cc(-c3ccc4c(c3)N([C@H]3C[C@@H](N5CCCCC5)C3)C(=O)C43CCN(C(=O)[C@@H]4CCN(C(=O)C5CCN(c6ccc(C7CCC(=O)NC7=O)cn6)CC5)C4)CC3)nc(Nc3ccccc3F)c21 (stereo partly drawn) [Example 24, 3-(6-(4-((R)-3-(6-(4-((2-fluorophenyl)amino)-3-isopropyl-3H-imidazo[4,5-c]pyridin-6-yl)-2-oxo-1-((1s,3S)-3-(piperidin-1-yl)cyclobutyl)spiro[indoline-3,4′-piperidine]-1′-carbonyl)pyrrolidine-1-carbonyl)piperidin-1-yl)pyridin-3-yl)piperidine-2,6-dione]	< 100 nM	> 85%
CC(C)n1cnc2cc(-c3ccc4c(c3)N([C@H]3C[C@@H](N5CCCCC5)C3)C(=O)C43CCN(C(=O)[C@H]4CC[C@H](C(=O)N5CCC(Nc6ccc(C7CCC(=O)NC7=O)cn6)CC5)CC4)CC3)nc(Nc3ccccc3F)c21 (stereo partly drawn) [Example 26, 3-(6-((1-((1R,4R)-4-(6-(4-((2-fluorophenyl)amino)-3-isopropyl-3H-imidazo[4,5-c]pyridin-6-yl)-2-oxo-1-((1s,3S)-3-(piperidin-1-yl)cyclobutyl)spiro[indoline-3,4′-piperidine]-1′-carbonyl)cyclohexane-1-carbonyl)piperidin-4-yl)amino)pyridin-3-yl)piperidine-2,6-dione]	< 100 nM	70 to 85%
CC(C)n1cnc2cc(-c3ccc4c(c3)N([C@H]3C[C@@H](N5CCCCC5)C3)C(=O)C43CCN(C(=O)C4CCN(C(=O)[C@H]5CC[C@H](C(=O)N6CCc7cc(C8CCC(=O)NC8=O)ccc7C6)CC5)CC4)CC3)nc(Nc3ccccc3F)c21 (stereo partly drawn) [Example 48, 3-(2-((1R,4R)-4-(4-(6-(4-((2-fluorophenyl)amino)-3-isopropyl-3H-imidazo[4,5-c]pyridin-6-yl)-2-oxo-1-((1S,3S)-3-(piperidin-1-yl)cyclobutyl)spiro[indoline-3,4′-piperidine]-1′-carbonyl)piperidine-1-carbonyl)cyclohexane-1-carbonyl)-1,2,3,4-tetrahydroisoquinolin-6-yl)piperidine-2,6-dione]	< 100 nM	70 to 85%
CC(C)n1cnc2cc(-c3ccc4c(c3)N([C@H]3C[C@@H](N5CCCCC5)C3)C(=O)C43CCN(C(=O)C4CCN(C(=O)[C@H]5CC[C@H](C(=O)N6CCc7cc(N8CCC(=O)NC8=O)ccc7C6)CC5)CC4)CC3)nc(Nc3ccccc3F)c21 [Example 49, 1-{2-[(1R,4R)-4-{4-[(6-{4-[(2-fluorophenyl)amino]-3-(propan-2-yl)-3H-imidazo[4,5-c]pyridin-6-yl}-2-oxo-1-[(1S,3S)-3-(piperidin-1-yl)cyclobutyl]-1,2-dihydrospiro[indole-3,4′-piperidin]-1′-yl)carbonyl]piperidine-1-carbonyl}cyclohexanecarbonyl]-1,2,3,4-tetrahydroisoquinolin-6-yl}-1,3-diazinane-2,4-dione]	100 to 500 nM	50 to 70%
CC(C)n1cnc2cc(-c3ccc4c(c3)N([C@H]3C[C@@H](N5CCCCC5)C3)C(=O)C43CCN(C(=O)C4CCN(C(=O)C5CCN(c6ccc(C7CCC(=O)NC7=O)cc6)CC5)CC4)CC3)nc(NC3CC3)c21 (stereo partly drawn) [Example 66, 3-(4-(4-(4-(6-(4-(cyclopropylamino)-3-isopropyl-3H-imidazo[4,5-c]pyridin-6-yl)-2-oxo-1-((1S,3S)-3-(piperidin-1-yl)cyclobutyl)spiro[indoline-3,4′-piperidine]-1′-carbonyl)piperidine-1-carbonyl)piperidin-1-yl)phenyl)piperidine-2,6-dione]	< 100 nM	70 to 85%
CC(C)n1cnc2cc(-c3ccc4c(c3)N([C@H]3C[C@@H](N5CCCCC5)C3)C(=O)C43CCN(C(=O)C4CCN(C(=O)C5CCN(c6ccc(C7CCC(=O)NC7=O)cc6)CC5)CC4)CC3)nc(Nc3ccncc3F)c21 (stereo partly drawn) [Example 68, 3-(4-(4-(4-(6-(4-((3-fluoropyridin-4-yl)amino)-3-isopropyl-3H-imidazo[4,5-c]pyridin-6-yl)-2-oxo-1-((1S,3S)-3-(piperidin-1-yl)cyclobutyl)spiro[indoline-3,4′-piperidine]-1′-carbonyl)piperidine-1-carbonyl)piperidin-1-yl)phenyl)piperidine-2,6-dione]	< 100 nM	70 to 85%
